Measured values as given in ChEMBL document CHEMBL1201862, “PubChem BioAssay data set” (2004).
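Cultured in 96-well plates, cells were exposed to test compound for 48 hours across five concentrations. The concentration for 50% growth inhibition is given as GI50.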 The source made the active and inactive calls. Rule as the data show it: active = GI50 up to about 1.1 µM and inactive = higher.

Assays:
Assay in all cases: growth of human tumour cells (NCI), 48 h
NCI-H522 = tested on: NCI-H522
U-251 = tested on: U-251
ACHN = tested on: ACHN
HOP-62 = tested on: HOP-62
T47D = tested on: T47D
BT-549 = tested on: BT-549
OVCAR-4 = tested on: OVCAR-4
SF-295 = tested on: SF-295
MDA-MB-231 = tested on: MDA-MB-231
SK-MEL-28 = tested on: SK-MEL-28
SW-620 = tested on: SW-620
EKVX = tested on: EKVX
SF-268 = tested on: SF-268
CAKI-1 = tested on: CAKI-1
NCI-H460 = tested on: NCI-H460
COLO 205 = tested on: COLO 205
HCC 2998 = tested on: HCC 2998
HCT-15 = tested on: HCT-15
M14 = tested on: M14
SK-OV-3 = tested on: SK-OV-3

Row | SMILES | GI50 (NCI-H522) | GI50 (U-251) | GI50 (ACHN) | GI50 (HOP-62) | GI50 (T47D) | GI50 (BT-549) | GI50 (OVCAR-4) | GI50 (SF-295) | GI50 (MDA-MB-231) | GI50 (SK-MEL-28) | GI50 (SW-620) | GI50 (EKVX) | GI50 (SF-268) | GI50 (CAKI-1) | GI50 (NCI-H460) | GI50 (COLO 205) | GI50 (HCC 2998) | GI50 (HCT-15) [µM] | GI50 (M14) | GI50 (SK-OV-3)
1 | c1ccc2c(c1)ccc1ncccc12 | > 100 µM (inactive) | 79.3 µM (inactive) | > 100 µM (inactive) | > 100 µM (inactive) | > 100 µM (inactive) | 47.1 µM (inactive) | > 100 µM (inactive) | > 100 µM (inactive) | > 100 µM (inactive) | > 100 µM (inactive) | > 100 µM (inactive) | > 100 µM (inactive) | > 100 µM (inactive) | 85.9 µM (inactive) | > 100 µM (inactive) | > 100 µM (inactive) | > 100 µM (inactive) | 58.2 | > 100 µM (inactive) | 
2 | O=C(CSc1ncnc2[nH]cnc12)c1ccccc1 | 47.4 µM (inactive) | > 100 µM (inactive) | > 100 µM (inactive) | > 100 µM (inactive) | > 100 µM (inactive) | > 100 µM (inactive) | > 48 µM (inactive) | > 100 µM (inactive) | > 100 µM (inactive) | > 100 µM (inactive) | > 100 µM (inactive) | > 100 µM (inactive) | > 100 µM (inactive) | 75.2 µM (inactive) | > 100 µM (inactive) | > 91 µM (inactive) |  | > 100 | > 88.3 µM (inactive) | > 100 µM (inactive)
3 | SC[C@@H]1COC[C@H](CS)S1 | > 100 µM (inactive) | > 100 µM (inactive) |  | > 100 µM (inactive) | > 100 µM (inactive) | > 100 µM (inactive) | > 100 µM (inactive) | > 100 µM (inactive) | > 100 µM (inactive) | > 100 µM (inactive) | > 100 µM (inactive) | > 100 µM (inactive) | > 100 µM (inactive) |  | > 100 µM (inactive) | > 100 µM (inactive) | > 100 µM (inactive) | > 100 | > 100 µM (inactive) | > 100 µM (inactive)
4 | COC(=O)C(Cc1c[nH]c2ccccc12)NP(=O)(O)OCC1OC(n2cc(Br)c(=O)[nH]c2=O)CC1O (configuration not stated) | > 100 µM (inactive) | > 100 µM (inactive) | > 100 µM (inactive) | > 100 µM (inactive) | > 100 µM (inactive) | > 100 µM (inactive) | > 100 µM (inactive) | > 100 µM (inactive) | > 100 µM (inactive) | > 100 µM (inactive) | > 100 µM (inactive) | > 100 µM (inactive) | > 100 µM (inactive) |  | > 100 µM (inactive) | > 100 µM (inactive) | > 100 µM (inactive) | > 100 | > 100 µM (inactive) | > 100 µM (inactive)
5 | CC(=O)NC(CC(C)C)C(=O)NC(CC(C)C)C(=O)NC(C=O)CCCNC(=N)N (configuration not stated) | > 100 µM (inactive) | > 100 µM (inactive) | > 100 µM (inactive) | > 100 µM (inactive) |  | > 100 µM (inactive) | > 100 µM (inactive) | > 100 µM (inactive) | > 100 µM (inactive) | > 100 µM (inactive) | > 100 µM (inactive) | > 100 µM (inactive) | > 100 µM (inactive) | > 100 µM (inactive) | > 100 µM (inactive) | > 100 µM (inactive) | > 100 µM (inactive) | > 100 | > 100 µM (inactive) | > 100 µM (inactive)
6 | Cc1cn([C@H]2CN(O)C[C@@H](CO)O2)c(=O)[nH]c1=O |  | > 100 µM (inactive) | > 100 µM (inactive) | > 100 µM (inactive) | > 100 µM (inactive) | > 100 µM (inactive) | > 100 µM (inactive) | > 100 µM (inactive) | > 100 µM (inactive) | > 100 µM (inactive) | > 100 µM (inactive) | > 100 µM (inactive) | > 100 µM (inactive) | > 100 µM (inactive) | > 100 µM (inactive) | > 100 µM (inactive) | > 100 µM (inactive) | > 100 | > 100 µM (inactive) | > 100 µM (inactive)
7 | CCOC(=O)c1cc2c3c(cc(OC)c2[nH]1)N(C(=O)OCC)CC3 |  | > 100 µM (inactive) |  | > 100 µM (inactive) | > 100 µM (inactive) | > 100 µM (inactive) | > 100 µM (inactive) | > 100 µM (inactive) | > 100 µM (inactive) | > 100 µM (inactive) | > 100 µM (inactive) | 42.5 µM (inactive) | > 100 µM (inactive) | > 100 µM (inactive) | > 100 µM (inactive) | > 100 µM (inactive) | > 100 µM (inactive) | > 100 | > 100 µM (inactive) | > 100 µM (inactive)
8 | CCCCCCCCCCCCNC(=O)CCC(NC(=O)c1ccc(N(C)Cc2cnc3nc(N)nc(N)c3n2)cc1)C(=O)NCCCCCCCCCCCC (configuration not stated) | > 100 µM (inactive) | 12.3 µM (inactive) | > 100 µM (inactive) | 23.6 µM (inactive) | 24.4 µM (inactive) | 41.2 µM (inactive) | 64.1 µM (inactive) | 25.4 µM (inactive) | 10.1 µM (inactive) | 43.3 µM (inactive) | 29.6 µM (inactive) | > 100 µM (inactive) | 78.3 µM (inactive) |  |  | > 100 µM (inactive) | 45.7 µM (inactive) | > 100 | 56.5 µM (inactive) | 
9 | Cc1ccc(/N=C2\OP(=O)(Nc3ccc(C)cc3)Oc3ccccc32)cc1 (configuration not stated) |  | > 100 µM (inactive) | > 100 µM (inactive) | > 100 µM (inactive) | > 100 µM (inactive) | > 100 µM (inactive) | > 100 µM (inactive) | > 100 µM (inactive) | > 100 µM (inactive) | > 100 µM (inactive) | > 100 µM (inactive) | > 100 µM (inactive) | > 100 µM (inactive) | > 100 µM (inactive) | > 100 µM (inactive) | > 100 µM (inactive) | > 100 µM (inactive) | > 100 | 29.3 µM (inactive) | > 100 µM (inactive)
10 | Cc1cccc2c1Oc1ccccc1C2NC(=O)c1ccc([N+](=O)[O-])cc1 (configuration not stated) | > 100 µM (inactive) | 57.8 µM (inactive) | > 100 µM (inactive) | 28.8 µM (inactive) | > 100 µM (inactive) | 56 µM (inactive) | 32.2 µM (inactive) | > 100 µM (inactive) | 66.1 µM (inactive) | > 100 µM (inactive) | > 100 µM (inactive) | > 100 µM (inactive) | 95.3 µM (inactive) | 69 µM (inactive) | > 100 µM (inactive) |  |  | > 100 | > 100 µM (inactive) | 
11 | COc1ccc2c(c1)CC[C@@H]1[C@@H]2CC[C@]2(C)C(=O)/C(=C/c3cc(OC)c(OC)c(OC)c3)C[C@@H]12 |  | 34.8 µM (inactive) | 21.7 µM (inactive) | 17 µM (inactive) | 67 µM (inactive) | 26.3 µM (inactive) | 40.4 µM (inactive) | 29.4 µM (inactive) | 18.1 µM (inactive) |  | > 100 µM (inactive) | 61.2 µM (inactive) | 0.0149 µM (active) | 27.7 µM (inactive) | 31.8 µM (inactive) | 87.1 µM (inactive) | 42.8 µM (inactive) | 70 | 23.2 µM (inactive) | 44 µM (inactive)
12 | O=c1c2cc(S(=O)(=O)O)ccc2nc(COc2ccc(Oc3ccc(Cl)cc3Cl)cc2)n1-c1ccc(Cl)cc1Oc1c(Cl)cccc1Cl | 20.7 µM (inactive) | 18.3 µM (inactive) | 25.1 µM (inactive) | 33.7 µM (inactive) | 46.1 µM (inactive) | 21.9 µM (inactive) | 29.4 µM (inactive) | 21.8 µM (inactive) |  |  | 23.3 µM (inactive) | 15.6 µM (inactive) | 15.3 µM (inactive) | 30.3 µM (inactive) | 19.5 µM (inactive) | 17.5 µM (inactive) |  | 21 | 21.9 µM (inactive) | 25.2 µM (inactive)
13 | COc1cc(S(=O)(=O)Nc2ccc(-c3csc(N4C(=O)CSC4c4ccccc4)n3)cc2)ccc1Cl (configuration not stated) | 34.4 µM (inactive) |  | 15.2 µM (inactive) | 81.8 µM (inactive) | 16.3 µM (inactive) | 75.5 µM (inactive) | 29.9 µM (inactive) | 96.6 µM (inactive) |  | 22.9 µM (inactive) | 42.4 µM (inactive) | 20.6 µM (inactive) | 33.7 µM (inactive) | > 100 µM (inactive) | 31.4 µM (inactive) | 35.6 µM (inactive) | 20.4 µM (inactive) | > 100 | 43.8 µM (inactive) | > 100 µM (inactive)
14 | O=C(Sc1c(-c2ccccc2)c(=O)n(-c2ccccc2)c(=S)n1-c1ccccc1)c1ccccc1 | 36.1 µM (inactive) | 79.1 µM (inactive) | > 100 µM (inactive) | > 100 µM (inactive) | 71.1 µM (inactive) | 56.1 µM (inactive) | > 100 µM (inactive) | 47.4 µM (inactive) |  | > 100 µM (inactive) | 28.6 µM (inactive) | > 100 µM (inactive) | > 100 µM (inactive) | > 100 µM (inactive) | > 100 µM (inactive) | > 100 µM (inactive) |  | 60.7 | 61.1 µM (inactive) | > 100 µM (inactive)
15 | COc1ccc2c(c1)CCC/C2=N\NS(=O)(=O)c1c(C)cc(C)cc1C |  | 31.6 µM (inactive) | 27.7 µM (inactive) | 43.4 µM (inactive) | 16.5 µM (inactive) | 28.9 µM (inactive) | 29.9 µM (inactive) | 34.4 µM (inactive) | 30.8 µM (inactive) | 35.1 µM (inactive) | 28.1 µM (inactive) | 23.2 µM (inactive) |  | 38.5 µM (inactive) | 31 µM (inactive) | 23.9 µM (inactive) | 41.5 µM (inactive) | 30.3 | 33.2 µM (inactive) | 
